Drawing on patent publication US9926282B2, “Phthalazinones and isoquinolinones as rock inhibitors” (BRISTOL-MYERS SQUIBB COMPANY, priority 2013, dated 2018), this text covers IC50 for 31 molecules.

The structures appear in SMILES notation.

Assay [1] concerns the target ROCK2 (Homo sapiens (Human), UniProt O75116). Kind of assay: ROCK assay (LABCHIP peptide phosphorylation), ROCK2. In kind it is biochemical. The following applies: 5 μM ATP, 1.5 μM peptide substrate.
Assay [2] has as its target ROCK1 (Homo sapiens (Human), UniProt Q13464). Kind of assay: ROCK assay (LABCHIP peptide phosphorylation), ROCK1. In kind it is biochemical. The following applies: 5 μM ATP, 1.5 μM peptide substrate; read-out: ROCK1 IC50.

Chain of ROCK1 (Q13464 whole entry, species assumed): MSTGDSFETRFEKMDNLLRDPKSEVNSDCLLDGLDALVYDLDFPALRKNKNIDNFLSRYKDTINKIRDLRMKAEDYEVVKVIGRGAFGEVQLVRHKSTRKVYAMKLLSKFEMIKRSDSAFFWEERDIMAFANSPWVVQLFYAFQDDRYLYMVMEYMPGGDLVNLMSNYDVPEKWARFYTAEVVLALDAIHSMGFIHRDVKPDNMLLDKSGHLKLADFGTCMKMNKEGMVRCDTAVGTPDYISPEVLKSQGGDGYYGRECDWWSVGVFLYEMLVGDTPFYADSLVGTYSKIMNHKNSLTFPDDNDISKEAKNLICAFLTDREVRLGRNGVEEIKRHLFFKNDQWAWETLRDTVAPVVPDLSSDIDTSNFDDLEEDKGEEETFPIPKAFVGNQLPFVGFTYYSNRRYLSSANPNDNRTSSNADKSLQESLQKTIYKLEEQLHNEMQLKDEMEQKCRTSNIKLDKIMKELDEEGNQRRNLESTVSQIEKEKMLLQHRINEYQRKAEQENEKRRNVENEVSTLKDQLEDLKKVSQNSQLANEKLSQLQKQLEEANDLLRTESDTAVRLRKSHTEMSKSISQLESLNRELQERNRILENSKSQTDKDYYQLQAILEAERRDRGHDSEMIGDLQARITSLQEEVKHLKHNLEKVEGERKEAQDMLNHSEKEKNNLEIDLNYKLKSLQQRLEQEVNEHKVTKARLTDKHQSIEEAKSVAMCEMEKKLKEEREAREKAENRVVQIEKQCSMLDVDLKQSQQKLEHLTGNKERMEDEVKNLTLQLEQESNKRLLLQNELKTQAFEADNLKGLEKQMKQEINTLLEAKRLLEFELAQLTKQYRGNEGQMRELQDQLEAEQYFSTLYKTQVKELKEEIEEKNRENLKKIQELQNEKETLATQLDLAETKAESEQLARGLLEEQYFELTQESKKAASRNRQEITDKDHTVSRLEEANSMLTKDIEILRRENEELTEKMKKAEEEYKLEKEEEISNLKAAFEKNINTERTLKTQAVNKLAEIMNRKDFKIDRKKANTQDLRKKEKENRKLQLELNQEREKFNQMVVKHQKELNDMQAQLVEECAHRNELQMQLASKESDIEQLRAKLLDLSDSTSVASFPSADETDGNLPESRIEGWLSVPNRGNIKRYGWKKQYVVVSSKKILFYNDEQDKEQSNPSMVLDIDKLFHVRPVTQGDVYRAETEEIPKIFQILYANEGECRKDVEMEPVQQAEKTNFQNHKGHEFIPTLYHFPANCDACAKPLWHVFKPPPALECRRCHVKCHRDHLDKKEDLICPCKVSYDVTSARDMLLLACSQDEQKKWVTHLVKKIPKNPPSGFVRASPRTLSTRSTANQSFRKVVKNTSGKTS
Chain of ROCK2 (O75116 whole entry, species assumed): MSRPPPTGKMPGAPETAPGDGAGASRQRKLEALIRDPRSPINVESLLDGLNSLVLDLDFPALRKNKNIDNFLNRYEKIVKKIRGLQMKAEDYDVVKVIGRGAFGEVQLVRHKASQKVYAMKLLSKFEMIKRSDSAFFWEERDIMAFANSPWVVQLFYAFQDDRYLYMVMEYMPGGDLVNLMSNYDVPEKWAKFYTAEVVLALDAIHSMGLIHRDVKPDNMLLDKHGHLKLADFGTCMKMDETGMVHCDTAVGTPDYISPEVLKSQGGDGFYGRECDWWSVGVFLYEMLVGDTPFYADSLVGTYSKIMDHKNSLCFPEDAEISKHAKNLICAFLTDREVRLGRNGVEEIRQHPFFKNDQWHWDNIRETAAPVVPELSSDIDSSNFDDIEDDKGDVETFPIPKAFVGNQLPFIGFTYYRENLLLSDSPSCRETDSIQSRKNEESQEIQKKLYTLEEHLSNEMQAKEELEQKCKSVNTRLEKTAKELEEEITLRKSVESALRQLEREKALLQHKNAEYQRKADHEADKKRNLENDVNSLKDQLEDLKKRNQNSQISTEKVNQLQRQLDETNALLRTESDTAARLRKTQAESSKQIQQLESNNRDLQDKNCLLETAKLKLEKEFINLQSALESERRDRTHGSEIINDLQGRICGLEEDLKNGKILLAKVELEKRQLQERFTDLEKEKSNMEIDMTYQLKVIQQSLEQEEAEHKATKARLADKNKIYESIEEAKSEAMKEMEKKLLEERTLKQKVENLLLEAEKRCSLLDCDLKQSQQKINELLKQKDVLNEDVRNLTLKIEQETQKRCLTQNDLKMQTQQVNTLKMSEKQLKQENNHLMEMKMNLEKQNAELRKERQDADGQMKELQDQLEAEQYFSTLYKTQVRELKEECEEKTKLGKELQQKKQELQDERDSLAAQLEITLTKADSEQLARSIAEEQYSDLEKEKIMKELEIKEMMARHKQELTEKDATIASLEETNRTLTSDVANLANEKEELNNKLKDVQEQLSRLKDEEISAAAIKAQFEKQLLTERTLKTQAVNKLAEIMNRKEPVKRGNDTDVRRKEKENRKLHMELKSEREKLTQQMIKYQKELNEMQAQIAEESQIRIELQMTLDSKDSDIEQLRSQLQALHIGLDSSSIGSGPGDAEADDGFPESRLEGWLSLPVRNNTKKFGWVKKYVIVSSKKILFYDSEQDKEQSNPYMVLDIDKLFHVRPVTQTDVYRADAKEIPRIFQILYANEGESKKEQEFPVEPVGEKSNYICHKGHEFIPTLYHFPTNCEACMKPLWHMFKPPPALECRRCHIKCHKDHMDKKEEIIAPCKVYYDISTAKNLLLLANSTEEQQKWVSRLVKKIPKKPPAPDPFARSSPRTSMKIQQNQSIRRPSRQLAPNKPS

As to `CN1CC[C@H](Oc2ccc3c(c2)N(C(=O)Cc2ccc(-c4n[nH]c(=O)c5ccccc45)cc2)CC3)C1` [Example 281, 4-{4-[2-(6-{[(3S)-1-methylpyrrolidin-3-yl]oxy}-2,3-dihydro-1H-indol-1-yl)-2-oxoethyl]phenyl}-1,2-dihydrophthalazin-1-one], the values for the IC50 in assay [1] and in assay [2] were 0.1 to 100 nM and 101 to 1000 nM, respectively.

Consider `O=C(Nc1ccc(-c2n[nH]c(=O)c3ccccc23)cc1)c1onc2ccccc12` [Example 93, N-[4-(4-oxo-3,4-dihydrophthalazin-1-yl)phenyl]-2,1-benzoxazole-3-carboxamide], for which the IC50 in assay [1] and in assay [2] was 0.1 to 100 nM each time.

Regarding `O=C(Nc1ccc(-c2n[nH]c(=O)c3ccccc23)cc1)C1CCN(c2ccccc2)C1=O` (centres unmarked) [Example 215, 2-oxo-N-[4-(4-oxo-3,4-dihydrophthalazin-1-yl)phenyl]-1-phenylpyrrolidine-3-carboxamide], the IC50 in assay [1] and in assay [2] was 101 to 1000 nM in each case.

For the molecule `Cc1cc(C(=O)Nc2ccc(-c3n[nH]c(=O)c4ccccc34)cc2)nn1C` [Example 205, 1,5-dimethyl-N-[4-(4-oxo-3,4-dihydrophthalazin-1-yl)phenyl]-1H-pyrazole-3-carboxamide], the IC50 in assay [1] was 0.1 to 100 nM; in assay [2] it was 101 to 1000 nM.

Regarding `Cn1nc(C(=O)Nc2ccc(-c3n[nH]c(=O)c4ccccc34)cc2)c2ccccc21` [Example 98, 1-methyl-N-[4-(4-oxo-3,4-dihydrophthalazin-1-yl)phenyl]-1H-indazole-3-carboxamide], the half-inhibitory concentration (IC50) in assay [1] and in assay [2] was 0.1 to 100 nM each time.

Take `CCn1c(C(=O)Nc2ccc(-c3n[nH]c(=O)c4ccccc34)cc2)cc2ccccc21` [Example 107, 1-ethyl-N-[4-(4-oxo-3,4-dihydrophthalazin-1-yl)phenyl]-1H-indole-2-carboxamide]: the 50% inhibitory concentration (IC50) in assay [1] and in assay [2] was 0.1 to 100 nM in each case.

For `Cc1ccccc1-n1ncc(C(=O)Nc2ccc(-c3n[nH]c(=O)c4ccccc34)cc2)c1C` [Example 214, 5-methyl-1-(2-methylphenyl)-N-[4-(4-oxo-3,4-dihydrophthalazin-1-yl)phenyl]-1H-pyrazole-4-carboxamide], the IC50 in assay [1] and in assay [2] was 0.1 to 100 nM in each case.

Take `Cn1ccc(C(=O)Nc2ccc(-c3n[nH]c(=O)c4ccccc34)cc2)n1` [Example 227, 1-methyl-N-[4-(4-oxo-3,4-dihydrophthalazin-1-yl)phenyl]-1H-pyrazole-3-carboxamide]: the IC50 in assay [1] lay in the range of 0.1 to 100 nM; in assay [2], 101 to 1000 nM.

As for `O=C(Nc1ccc(-c2n[nH]c(=O)c3ccccc23)cc1)c1c[nH]c(-c2ccccc2)n1` [Example 230, N-[4-(4-oxo-3,4-dihydrophthalazin-1-yl)phenyl]-2-phenyl-1H-imidazole-4-carboxamide], the half-maximal inhibitory concentration (IC50) in assay [1] and in assay [2] was 0.1 to 100 nM each time.

In the case of `O=C(Nc1ccc(-c2n[nH]c(=O)c3ccccc23)cc1)c1cnn(C2C3CCC2CC3)c1` (centres unmarked) [Example 392, 1-(Bicyclo[2.2.1]heptan-7-yl)-N-(4-(4-oxo-3,4-dihydrophthalazin-1-yl)phenyl)-1H-pyrazole-4-carboxamide], the IC50 in assay [1] and in assay [2] was 0.1 to 100 nM each time.

Take `O=C(Nc1ccc(-c2n[nH]c(=O)c3ccccc23)cc1)c1ccc(-n2cncn2)cc1` [Example 92, N-[4-(4-oxo-3,4-dihydrophthalazin-1-yl)phenyl]-4-(1H-1,2,4-triazol-1-yl)benzamide]: the IC50 in assay [1] is 0.1 to 100 nM; in assay [2], 101 to 1000 nM.

With `O=C(Cc1ccc(-c2n[nH]c(=O)c3ccccc23)cc1)N1CCC(c2ccccc2)CC1` [Example 11, 4-{4-[2-oxo-2-(4-phenylpiperidin-1-yl)ethyl]phenyl}-1,2-dihydrophthalazin-1-one], the IC50 in assay [1] lay in the range of 101 to 1000 nM; in assay [2], 1000 to 50000 nM.

`COCCN1CCC(C(=O)Nc2ccc(-c3n[nH]c(=O)c4ccccc34)cc2)C1` (centres unmarked) [Example 57, 1-(2-methoxyethyl)-N-[4-(4-oxo-3,4-dihydrophthalazin-1-yl)phenyl]pyrrolidine-3-carboxamide]: the concentration for half-maximal inhibition (IC50) in assay [1] and in assay [2] was 1000 to 50000 nM in each case.

For `COCCn1nc(C(=O)Nc2ccc(-c3n[nH]c(=O)c4ccccc34)cc2)c2ccccc21` [Example 151, 1-(2-methoxyethyl)-N-[4-(4-oxo-3,4-dihydrophthalazin-1-yl)phenyl]-1H-indazole-3-carboxamide], the IC50 in assay [1] and in assay [2] was 0.1 to 100 nM each time.

On to `CCCc1cc(C(=O)Nc2ccc(-c3n[nH]c(=O)c4ccccc34)cc2)nn1C` [Example 229, 1-methyl-N-[4-(4-oxo-3,4-dihydrophthalazin-1-yl)phenyl]-5-propyl-1H-pyrazole-3-carboxamide], for which the IC50 in assay [1] and in assay [2] was 0.1 to 100 nM throughout.

`O=C(Nc1ccc(-c2n[nH]c(=O)c3ccccc23)cc1)c1nn(CC2CCN(C(=O)OCCF)CC2)c2ccccc12` [Example 350, 2-Fluoroethyl 4-[(3-{[4-(4-oxo-3,4-dihydrophthalazin-1-yl)phenyl]carbamoyl}-1H-indazol-1-yl)methyl]piperidine-1-carboxylate]: the IC50 in assay [1] and in assay [2] was 0.1 to 100 nM each time.

Turning to `O=C(Nc1ccc(-c2n[nH]c(=O)c3ccccc23)cc1)c1nn(Cc2ccncc2)c2ccccc12` [Example 165, N-[4-(4-oxo-3,4-dihydrophthalazin-1-yl)phenyl]-1-(pyridin-4-ylmethyl)-1H-indazole-3-carboxamide], the IC50 in assay [1] and in assay [2] was 0.1 to 100 nM each time.

Regarding `Cn1nc(C(=O)Nc2ccc(-c3n[nH]c(=O)c4ccccc34)cc2)cc1C(C)(C)C` [Example 206, 5-tert-butyl-1-methyl-N-[4-(4-oxo-3,4-dihydrophthalazin-1-yl)phenyl]-1H-pyrazole-3-carboxamide], the IC50 in assay [1] and in assay [2] was 0.1 to 100 nM throughout.

Take `O=C(Cc1ccc(-c2n[nH]c(=O)c3ccccc23)cc1)Nc1ccc2ncsc2c1` [Example 21]: the half-inhibitory concentration (IC50) in assay [1] was 0.1 to 100 nM; in assay [2], 101 to 1000 nM.

Regarding `O=C(Nc1ccc(-c2n[nH]c(=O)c3ccccc23)cc1)c1nn(CC(O)COCc2ccccc2)c2ccccc12` (centres unmarked) [Example 147, 1-[3-(benzyloxy)-2-hydroxypropyl]-N-[4-(4-oxo-3,4-dihydrophthalazin-1-yl)phenyl]-1H-indazole-3-carboxamide], the IC50 in assay [1] and in assay [2] was 0.1 to 100 nM throughout.

With `Cn1ccnc1C(=O)Nc1ccc(-c2n[nH]c(=O)c3ccccc23)cc1` [Example 52, 1-methyl-N-[4-(4-oxo-3,4-dihydrophthalazin-1-yl)phenyl]-1H-imidazole-2-carboxamide], the IC50 in assay [1] and in assay [2] was 101 to 1000 nM throughout.

Take `Cc1cccc(N2CCC(C(=O)Nc3ccc(-c4n[nH]c(=O)c5ccccc45)cc3)C2=O)c1` (centres unmarked) [Example 209, 1-(3-methylphenyl)-2-oxo-N-[4-(4-oxo-3,4-dihydrophthalazin-1-yl)phenyl]pyrrolidine-3-carboxamide]: the concentration for half-maximal inhibition (IC50) in assay [1] and in assay [2] was 101 to 1000 nM throughout.

As to `O=C(Nc1ccc(-c2n[nH]c(=O)c3ccccc23)cc1)c1cc2ccccc2n1Cc1ccccc1` [Example 136, 1-benzyl-N-[4-(4-oxo-3,4-dihydrophthalazin-1-yl)phenyl]-1H-indole-2-carboxamide], the values for the IC50 in assay [1] and in assay [2] were 0.1 to 100 nM and 1000 to 50000 nM, respectively.

Consider `O=C(Cc1ccc(-c2n[nH]c(=O)c3ccccc23)c(F)c1)N1Cc2ccccc2C1` [Example 37, 4-(2-Fluoro-4-(2-(isoindolin-2-yl)-2-oxoethyl)phenyl)phthalazin-1(2H)-one], for which the IC50 in assay [1] was in the range of 0.1 to 100 nM; in assay [2], 101 to 1000 nM.

For `CC(C)c1c(C(=O)Nc2ccc(-c3n[nH]c(=O)c4ccccc34)cc2)cn2nc[nH]c(=O)c12` [Example 108, 4-oxo-N-[4-(4-oxo-3,4-dihydrophthalazin-1-yl)phenyl]-5-(propan-2-yl)-3H,4H-pyrrolo[2,1-f][1,2,4]triazine-6-carboxamide], the IC50 was in the range of 0.1 to 100 nM in assay [1] and 101 to 1000 nM in assay [2].

In the case of `O=C(Nc1ccc(-c2n[nH]c(=O)c3ccccc23)cc1)c1nn(CC2CCN(CCCCO)CC2)c2ccccc12` [Example 322, 1-((1-(4-Hydroxybutyl)piperidin-4-yl)methyl)-N-(4-(4-oxo-3,4-dihydrophthalazin-1-yl)phenyl)-1H-indazole-3-carboxamide], the 50% inhibitory concentration (IC50) in assay [1] was in the range of 101 to 1000 nM; in assay [2], 0.1 to 100 nM.

Consider `Cc1cc(NC(=O)Cc2ccc(-c3n[nH]c(=O)c4ccccc34)cc2)on1` [Example 26, N-(3-methyl-1,2-oxazol-5-yl)-2-[4-(4-oxo-3,4-dihydrophthalazin-1-yl)phenyl]acetamide], for which the 50% inhibitory concentration (IC50) lay within 0.1 to 100 nM in assay [1] and 1000 to 50000 nM in assay [2].

As for `O=C(Nc1ccc(-c2n[nH]c(=O)c3ccccc23)cc1)c1cn2c(n1)CCCC2` [Example 134, N-[4-(4-oxo-3,4-dihydrophthalazin-1-yl)phenyl]-5H,6H,7H,8H-imidazo[1,2-a]pyridine-2-carboxamide], the half-maximal inhibitory concentration (IC50) in assay [1] lay in the range of 0.1 to 100 nM; in assay [2] it was 101 to 1000 nM.

For the molecule `CCOc1cc(NC(=O)c2nn(CC(C)(C)O)c3ccccc23)ccc1-c1n[nH]c(=O)c2ccccc12` [Example 346, N-(3-Ethoxy-4-(4-oxo-3,4-dihydrophthalazin-1-yl)phenyl)-1-(2-hydroxy-2-methylpropyl)-1H-indazole-3-carboxamide], the half-maximal inhibitory concentration (IC50) in assay [1] was in the range of 101 to 1000 nM; in assay [2], 1000 to 50000 nM.

As to `O=C(Nc1ccc(-c2n[nH]c(=O)c3ccccc23)c(CO)c1)c1cnc2ccccn12` [Example 365, N-(3-(Hydroxymethyl)-4-(4-oxo-3,4-dihydrophthalazin-1-yl)phenyl)imidazo[1,2-a]pyridine-3-carboxamide], the IC50 in assay [1] (given as number) was 222 nM; in assay [2], 1000 to 50000 nM.

In the case of `CN(C)c1ccc2cc(C(=O)Nc3ccc(-c4n[nH]c(=O)c5ccccc45)cc3)[nH]c2c1` [Example 94, 6-(dimethylamino)-N-[4-(4-oxo-3,4-dihydrophthalazin-1-yl)phenyl]-1H-indole-2-carboxamide], the concentration for half-maximal inhibition (IC50) in assay [1] and in assay [2] was 0.1 to 100 nM each time.

Broadly, the IC50 is the concentration at which inhibition is half-maximal.
